# From patent publication EP0551200A1, “Protein phosphatase inhibitors for use in therapy” (priority 1992, dated 1993)
# Like-named read-outs stand apart in the source and are kept apart here.
# How the values were obtained:
# Egr-1 mRNA [1] = experiment: Northern blot analysis of Egr-1 mRNA induction in quiescent primary human fibroblasts; type: cell-based
# Protocol: Quiescent human fibroblasts were incubated with TNF (500 units/ml) (a) or OA (500 nM) (b) for 0, 30, 60 min after which total cellular RNA was extracted. Blots of RNA from these cells were hybridized to radiolabeled (10⁶ cpm/ml) Egr-1 cDNA probe. c, the blot in b was stripped and reprobed with c-jun cDNA. Note: Egr-1 mRNA probe was not completely stripped from the blot. The autoradiograph of the blot is presented. d, regularly maintained cells were incubated wither with no additions (control, 0 time) or with OA for 1, 3, 5, 7 h and Northern analysis was carried out with an IL-6 cDNA probe (ATCC, Rockville, MD, US).
# (§1) 10 µg of RNA was applied to each lane and subjected to Northern blot analysis using an Egr-1 specific cDNA probe [1.6 kb Bgl II fragment (Sukhatme et al, Cell 53, 37-48, 1988)]. The same blots were rehybridized with actin or GADPH cDNA for normalizing the amount of RNA loaded. The blots were dried and autoradiographed. • (A). Time course of okadaic acid-induced Egr-1 and c-jun messages in primary human fibroblasts. Quiescent human fibroblasts were induced with 1 µM of okadaic acid for the time periods indicated. […] Time course of okadaic acid-induced Egr-1 message in Balb/c 3T3 cells. Quiescent Balb/c 3T3 cells were induced with okadaic acid (0.5µM) for the times indicated. • (C). Concentration dependent induction of Egr-1 message by okadaic acid in Balb/c 3T3 cells. Quiescent Balb/c 3T3 cells were induced with the indicated concentrations of okadaic acid for 1 h. As controls, different concentrations of DMSO were included. These corresponded to the amounts present in 0.25 µM okadaic acid (0.025% dimethyl sulphoxide (DMSO)) 0.5 µM okadaic acid (0.05% DMSO) and 1 µM okadaic acid (0.1%). • (D). Concentration dependent and time course induction of Egr-1 message by calyculin A. Quiescent Balb/c 3T3 cells were induced with different concentrations of calyculin A for 1 h. Northern analysis of this dose-dependent induction by calyculin A is shown on the left panel of the figure. […] Northern analysis of this time course induction by calyculin A is shown in the right panel of the figure. The same blot was rehybridized with pCMV-fos (Curran et al, Oncogene 2, 79-84, 1987) and pCMV-jun (Rauscher et al, 1988) shown in the middle panel. The blot was dried and autoradiographed.
# Cells were incubated with either 0.5 µM of okadaic acid or 10 µg/ml of cycloheximide as well as with 0.5 µM of okadaic acid and 10 µg/ml of cycloheximide for 1.5, 3 or 6 h. Cells were harvested, RNA isolated and subjected to Northern blot analysis. The blot was probed with Egr-1 or actin cDNA.
# Quiescent primary human fibroblasts were incubated with okadaic acid (OA) or TPA for 1 or 3 h. The concentrations of OA and TPA were 0.5 µM and 120 ng/ml, respectively. The concentration of 1-(5-isoquinolinylsulfonyl)-2-methylpiperazine dihydrochloride (H7) and N-(2-guanidinoethyl)-5-isoquinolinesulphonamide dihydrochloride (HA1004) used was 25 µM. The cells were pre-treated for 15 min with H7 or HA1004 before they were induced by OA or TPA for 1 or 3 h. Cells were harvested, RNA was isolated and subjected to Northern blot analysis. The blot was probed with Egr-1 or GADPH cDNA. • (B). As a positive control, primary human fibroblasts were treated with TPA (30 ng/ml) for 1 h (1st lane). The fibroblasts were also pre-treated with H7 (25 µM) or HA1004 (25 µM) for 15 min before treatment with TPA for 1 h (2nd and 3rd lanes respectively). […] The blot was probed with Egr-1 or actin cDNA. • (C). Quiescent Balb/c 3T3 cells were incubated with OA, TPA or dBt-cAMP for 1 h or pre-treated with H7 (25 µM) or HA1004 (25 µM) for 15 min and then incubated with each of the agonists for 1 h. Cells were harvested, RNA was isolated and subjected to Northern blot analysis. […]
# Egr-1 mRNA [2] = experiment: cells; type: cell-based, mouse
# Protocol: as §1
# Quiescent primary human fibroblasts were incubated with okadaic acid (OA) or TPA for 1 or 3 h. The concentrations of OA and TPA were 0.5 µM and 120 ng/ml, respectively. The concentration of 1-(5-isoquinolinylsulfonyl)-2-methylpiperazine dihydrochloride (H7) and N-(2-guanidinoethyl)-5-isoquinolinesulphonamide dihydrochloride (HA1004) used was 25 µM. The cells were pre-treated for 15 min with H7 or HA1004 before they were induced by OA or TPA for 1 or 3 h. Cells were harvested, RNA was isolated and subjected to Northern blot analysis. The blot was probed with Egr-1 or GADPH cDNA. • (B). As a positive control, primary human fibroblasts were treated with TPA (30 ng/ml) for 1 h (1st lane). The fibroblasts were also pre-treated with H7 (25 µM) or HA1004 (25 µM) for 15 min before treatment with TPA for 1 h (2nd and 3rd lanes respectively). […] The blot was probed with Egr-1 or actin cDNA. • (C). Quiescent Balb/c 3T3 cells were incubated with OA, TPA or dBt-cAMP for 1 h or pre-treated with H7 (25 µM) or HA1004 (25 µM) for 15 min and then incubated with each of the agonists for 1 h. Cells were harvested, RNA was isolated and subjected to Northern blot analysis. The concentration of each agonist used was as follows: lane a: 0.5 µM of OA, lane b: 100 ng/ml of TPA, lane c: 1 mM of dBt-cAMP, lane d: H7 plus OA (0.5 µM), lane e: H7 plus TPA (100 ng/ml), lane f: H7 plus dBt-cAMP (1 mM), lane g: HA1004 plus OA (0.5 µM), lane h: HA1004 plus TPA (100 ng.ml), lane i: HA1004 plus dBt-cAMP (1mM). The blot was probed with Egr-1 or GADPH cDNA.
# Cell Cultures and Reagents. Human diploid foreskin fibroblasts were a gift from Dr J Vilcek (New York University, New York). The cells were grown in MEM supplemented with 10% fetal bovine serum (Hyclone, Logan, UT, US), Mouse Balb/c 3T3 cells were purchased from the American Type Culture Collection and grown in Dulbecco's MEM (DMEM) supplemented with 10% fetal bovine serum. Okadaic acid, calyculin A, H7, and HA1004 were purchased from Biomol Research Laboratories (Plymouth Meeting, PA, US). TPA, puromycin and dBt-cAMP were purchased from Sigma (St Louis, MO, US) 1 mM stock solutions of okadaic acid or calyculin A were solubilized in DMSO. [³²P]orthophosphate and other radioactive chemicals were purchased from Du Pont-New England Nuclear (Boston, MA). […]
# Egr-1 protein = type: cell-based; conditions: 2 h treatment, data not shown
# Protocol: Quiescent human fibroblasts were stimulated with MEM containing 0.5 µM okadaic acid in the presence or absence of cycloheximide (10 µg/ml) for the times indicated in Fig. 11. […] Treatment of cells with cycloheximide enhanced the induction of Egr-1 mRNA by okadaic acid at 1.5 and 3 h (Fig. 11). Similarly puromycin, like cycloheximide, also "superinduces" the induction of the Egr-1 mRNA by okadaic acid (data not shown). […] However, in view that protein phosphatase 1 (PP1) and protein phosphatase 2A (PP2A) regulate enzymes associated with cellular protein synthesis (Cohen, Annu. Rev. Biochem. 58, 453-508, 1989) the effect of okadaic acid on protein synthesis in mouse and human fibroblasts was also measured. […] By then the Egr-1 mRNA message was already induced. A corollary to this is a comparison of the amount of ³⁵S-methionine labelled Egr-1 protein immunoprecipitated by R5232 antibodies from protein phosphatase inhibitor-treated and control cells. […] Thus, the induction of the Egr-1 gene by phosphatase inhibitors is unlikely to be mediated by their late inhibitory effects on cellular protein synthesis.
# c-fos and c-jun = experiment: Northern blot analysis of c-fos and c-jun in Balb/c 3T3 cells; type: cell-based, mouse; conditions: 15 nM time course
# Protocol: 10 µg of RNA was applied to each lane and subjected to Northern blot analysis using an Egr-1 specific cDNA probe [1.6 kb Bgl II fragment (Sukhatme et al, Cell 53, 37-48, 1988)]. The same blots were rehybridized with actin or GADPH cDNA for normalizing the amount of RNA loaded. The blots were dried and autoradiographed. • (A). Time course of okadaic acid-induced Egr-1 and c-jun messages in primary human fibroblasts. Quiescent human fibroblasts were induced with 1 µM of okadaic acid for the time periods indicated. […] Time course of okadaic acid-induced Egr-1 message in Balb/c 3T3 cells. Quiescent Balb/c 3T3 cells were induced with okadaic acid (0.5µM) for the times indicated. • (C). Concentration dependent induction of Egr-1 message by okadaic acid in Balb/c 3T3 cells. Quiescent Balb/c 3T3 cells were induced with the indicated concentrations of okadaic acid for 1 h. As controls, different concentrations of DMSO were included. These corresponded to the amounts present in 0.25 µM okadaic acid (0.025% dimethyl sulphoxide (DMSO)) 0.5 µM okadaic acid (0.05% DMSO) and 1 µM okadaic acid (0.1%). • (D). […]
# Cell Cultures and Reagents. […] The blots were autoradiographed and quantitated with the aid of the Visage 2000 Image System (BioImage Products, Ann Arbor, MI, US). […]
# human fibroblasts = experiment: Early protein phosphorylation changes in 32P-labeled cells, two-dimensional gel electrophoresis with computerized densitometry; type: cell-based
# Protocol: The cells were then subjected to analysis by high resolution two-dimensional gel electrophoresis combined with computerized imaging as previously described (Guy et al, J. Biol. Chem. 266, 14343-14352, 1991).
# Radiolabeling of Cells and Cell Lysis - For labeling with [³²P]orthophosphate cells were plated onto 90 mm plastic tissue culture dishes and incubated for 3 days for the cells to become confluent. Immediately before labeling, the media was removed and the cells were washed twice with 5 ml of phosphate- and serum-free media (150 mM NaCl, 5 mM MgCl₂, 5 mM KCl, 1.6 mM CaCl₂, 0.5% glucose, 10 mM Tris, 0.1% bovine serum albumin, pH 7.4) before the addition of 1 mCi/ml of [³²P]orthophosphate in 3 ml of the same media to each plate. The plates were incubated at 37°C in a humidified CO₂ incubator for 2 h before the addition of the okadaic acid or other agonists at the concentrations and for the times indicated in the figures and table. The agonists were reconstituted in aqueous buffered solution or in dimethyl sulfoxide. […] At the completion of labeling the media was removed, and the cells were rapidly washed twice with 5 ml of ice-cold phosphate-buffered saline before being solubilised in 200 µl of cytosol extraction buffer (10mM Tris-HCl, 50 mM EDTA, 50 mM NaCl, 30 mM sodium pyrophosphate, 50 mM NaF, 100µM Na₃VO₄, 0.65% Nonidet P-40, 2 mM leupeptin, 2mM phenylmethylsulfonyl fluoride, pH 7.4). The lysate was collected and centrifuged for 5 min at 14,000 rpm. The pellet containing the nuclear fraction (including the cytoskeletal-membrane fractions) was separated from the cytosolic fraction. Both fractions were lyophilized.
# Two-dimensional Gel Electrophoresis - The lyophilized fractions (each of approximately 12 µg) were subjected to isoelectric focusing for 18,000 V/h with pH 3-10 ampholytes using the Millipore Investigator two-dimensional electrophoresis system (Millipore). Following this, the first-dimension gel was extruded and equilibrated in SDS buffer for 2 min before being loaded onto the second dimension 12.5% SDS-polyacrylamide gel. The gel was fixed, dried and ³²P-labeled polypeptides were located by autoradiography by using intensifying screens at -80°C. For measurement of the pH profile, carbamylated protein standards (Pharmacia LKB Biotechnology Inc.) were co-run on duplicate gels and related to proteins of known pI on previously calibrated samples. Molecular weight marker proteins from Sigma were detected by Coomassie Blue staining and marked on the autoradiogram. ³²P-Labeled 27 hsp complex prepared from human fibroblasts heat shocked at 43°C for 30 min was also used as a marker.
# Quantitative Determination of Protein Phosphorylation - The amount of protein phosphorylation on autoradiographs derived from cytosolic membrane or antibody-precipitated preparations containing equal amounts of protein were analyzed by computerized densitometry using a Visage 2000 Image analysis system (BioImage Products, Ann Arbor, MI, US).
# The ³²P-labeled protein spots are resolved and detected by autoradiography of the high definition two-dimensional gel electrophoresis of cytosolic extracts prepared from ³²P-labeled human fibroblasts. The radioactive spots (each representing one or more phosphoproteins) are analyzed by computerized densitometry. Each spot is arbitrarily assigned a number. […]
compound,measurement,setting,value
"CC1CNCCN1S(=O)(=O)c1cccc2cnccc12.Cl.Cl (stereo not shown) [H7, 1-(5-isoquinolinylsulfonyl)-2-methylpiperazine dihydrochloride]",block of induction of Egr-1 message by okadaic acid or TPA (in words),"Egr-1 mRNA [1]; 25 µM, 15 min pre-treatment",effectively blocked
same,block of induction of Egr-1 message by okadaic acid or TPA (in words),"Egr-1 mRNA [2]; 25 µM, 15 min pre-treatment",effectively blocked
COC[C@@H]([C@H](O)[C@H](O)C(=O)NCC[C@H](C)c1nc(/C=C/C[C@@H]2O[C@]3(C[C@@H](O)[C@@H]2C)O[C@H]([C@H](C[C@H](O)[C@H](C)[C@H](O)[C@H](C)/C=C(C)/C(C)=C/C=C/C(C)=C\C#N)OC)[C@H](OP(=O)(O)O)C3(C)C)co1)N(C)C [calyculin A],amount of 35S-methionine labeled Egr-1 protein relative to control cells,Egr-1 protein,4 to 5 fold
same,concentration up to which induction of Egr-1 mRNA increased dose-dependently,Egr-1 mRNA [2]; 1 h,up to 25 nM
same,concentration inducing an equivalent fold increase in Egr-1 mRNA,"Egr-1 mRNA [2]; 1 h, calyculin A compared with okadaic acid",10 nM
same,induction of immediate-early genes c-fos and c-jun (in words),c-fos and c-jun,also induced
C[C@@H]1C[C@@H]([C@H](O)CC2CC(=O)NC(=O)C2)C(=O)[C@@H](C)C1 [cycloheximide],effect on the induction of Egr-1 mRNA by okadaic acid (in words),Egr-1 mRNA [1],enhanced
same,induction of Egr-1 mRNA by the substance alone (in words),Egr-1 mRNA [1],induced Egr-1 mRNA
COc1ccc(C[C@H](N)C(=O)N[C@H]2[C@@H](O)[C@H](n3cnc4c(N(C)C)ncnc43)O[C@@H]2CO)cc1 [puromycin],effect on the induction of Egr-1 mRNA by okadaic acid (in words),"Egr-1 mRNA [1]; 0.5 µM okadaic acid, protein synthesis inhibitor",superinduces
O-tetradecanoylphorbol 13-acetate [TPA],pattern of early protein phosphorylation changes (in words),human fibroblasts,quite different from that produced by okadaic acid or TNF
